Legend:
[1] = Haemodynamic parameters in the narcotized dog (test B); format: in vivo; conditions: 0.03 mg/kg p.o.
Description: B. Haemodynamic parameters in the narcotized dog:
The 4 most important measurement parameters (with respective measurement units) of the haemodynamic experiment are: (1) CBF: Coronary Blood Flow (in ml/min)--the velocity of blood flow through the coronary arteries; (2) HR: heart rate (in beats/min)--the heart frequency; (3) BP: blood pressure (in mm Hg)--the blood pressure; and (4) dp/dt: rate of increase in left ventricular pressure (in mm Hg/sec)--the rate of increase of the left ventricular pressure, as a measurement of the contractility force of the heart. The values are given as the %maximum variation from the initial value (Δ%) and the duration of this variation (t) per dosage administered.
There is thus obtained not only an overall picture of the activity of the substance, but also an estimation as to the potential selectivity for a specific part of the circulatory system in the entire organism. After the administration of an anaesthetic, the dog is intubated and respired artificially. Blood pH, pCO2, pO2 and haemoglobin are measured hourly with a blood-gas analyzer. The blood pressure (systolic and diastolic) is measured with a probe in the aorta abdominalis. The heart frequency is recorded by means of a tachometer, which is disengaged from the pressure pulse. For the other measurements the heart must firstly be opened in order that a probe can be inserted in the left ventricle (heart chamber) for the pressure measurements (dp/dt). The coronary blood flow is measured with a flowing probe in the left coronary artery (descendens).

[2] = tested on: ^3 H-nifedipine (or ^3 H-nitrendipine) binding, rabbit or guinea pig heart membranes; experiment: 3H-Nifedipine binding determination on homogenates or partially-cleaned membranes of rabbit or guinea pig heart (test A); conditions: maximum inhibition of specific binding; nifedipine established as 100%
Description: A. ^3 H-Nifedipine binding determination:
The determination is carried out on homogenates or on partially-cleaned membranes of rabbit or guinea pig heart. The reaction mixture (0.3 ml) consists of 0.2-0.8 mg of membrane protein, 1 nM of ^3 H-nifedipine (or 0.25 nM of ^3 H-nitrendipine) and various concentrations of the test substance. The incubation lasts 30 minutes at 25° C. or 37° C. and is stopped by dilution with the incubation buffer; a filtration is subsequently carried out. The filter-bound radioactivity is measured with a scintillation counter. Specific binding, that is, receptor-bound, is defined as the difference between total and unspecific-bound radioactivity. The unspecific binding is determined in the presence of an excess of non-radioactive nifedipine (1 μM).
The activity (potency) of a compound in this test is defined by the IC50 and %maximum inhibition values (%max. inhibition). The IC50 is the substance concentration (in mol/l) which produces a half-maximum inhibition of the specific ^3 H-nifedipine (or ^3 H-nitrendipine) binding. The maximum inhibition of the specific binding is given by the %maximum inhibition value; this value is established as 100% for the reference compound nifedipine. Both parameters are extrapolated from a concentration-binding curve.

| Structure (SMILES) | Bp (blood pressure), % maximum variation from the initial value (Δ%) [1] | Bp, duration of variation (t) [1] | CBF (Coronary Blood Flow), % maximum variation from the initial value (Δ%) [1] | CBF, duration of variation (t) [1] | HR (heart rate), % maximum variation from the initial value (Δ%) [1] | HR, duration of variation (t) [1] | dp/dt (rate of increase in left ventricular pressure), % maximum variation from the initial value (Δ%) [1] | dp/dt, duration of variation (t) [1] | % max. inhib. [2] |
| --- | --- | --- | --- | --- | --- | --- | --- | --- | --- |
| CCCCN(C)S(=O)(=O)C1=C(C)NC(C)=C(C(=O)OC(C)C)C1c1cccc([N+](=O)[O-])c1 (stereo not drawn) [B, 5-(butylmethylsulfamoyl)-1,4-dihydro-2,6-dimethyl-4-(3-nitrophenyl)nicotinic acid isopropyl ester] | -30% | 24 ' | 78% | 40 ' | -11% | > 30 ' | -2% | 20 ' | 100% |
| COCCN(C)S(=O)(=O)C1=C(C)NC(C)=C(C(=O)OC(C)C)C1c1cccc([N+](=O)[O-])c1 (stereo not drawn) [C, 1,4-dihydro-2,6-dimethyl-5-[(2-methoxyethyl)methylsulfamoyl]-4-(3-nitrophenyl)nicotinic acid isopropyl ester] | -32% | > 60 ' | 108% | 20 ' | -11% | > 60 ' | -16% | > 60 ' | 100% |
| CCCOCCOC(=O)C1=C(C)NC(C)=C(S(=O)(=O)N(C)C)C1c1cccc([N+](=O)[O-])c1 (stereo not drawn) [A, 5-(dimethylsulfamoyl)-1,4-dihydro-2,6-dimethyl-4-(3-nitrophenyl)nicotinic acid 2-propoxyethyl ester] | -55% | 60 ' | 50% | 60 ' | -19% | 40 ' | -42% | 60 ' | 100% |

— US4847273A, “Dihydropyridine derivatives” (Hoffmann-La Roche Inc., priority 1985, dated 1989)
